Values belong to the molecule of their own block, whether it stands above or below them.
How the values were obtained:
[1] = test system: GCK (recombinant GST-GCK); conditions: cited from earlier work
[2] = target: T1, recombinant human GST-GCK (Homo sapiens, UniProt P35557); assay type: biochemical; conditions: 4 nM GCK, 37.5 mM glucose, fit accounting for substrate inhibition, mean ± SD; read-out: ATP Km
T1 construct: GST (glutathione-S-transferase); made in house
T1 sequence (P35557 1-465): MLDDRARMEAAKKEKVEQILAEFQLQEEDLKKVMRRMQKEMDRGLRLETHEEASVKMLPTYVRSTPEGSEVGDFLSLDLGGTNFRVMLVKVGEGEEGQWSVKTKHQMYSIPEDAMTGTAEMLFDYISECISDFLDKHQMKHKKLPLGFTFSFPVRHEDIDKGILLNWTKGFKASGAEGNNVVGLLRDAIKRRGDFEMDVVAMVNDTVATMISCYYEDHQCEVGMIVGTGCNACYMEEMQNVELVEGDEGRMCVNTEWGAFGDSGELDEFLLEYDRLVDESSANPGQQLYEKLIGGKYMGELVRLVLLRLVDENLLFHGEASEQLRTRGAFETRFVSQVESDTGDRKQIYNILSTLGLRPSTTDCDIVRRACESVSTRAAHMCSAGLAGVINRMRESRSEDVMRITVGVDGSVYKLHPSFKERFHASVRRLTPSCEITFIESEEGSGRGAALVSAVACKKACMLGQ
Procedure: The ATP Km for GCK was determined by fluorescent monitoring of NADH oxidation using a dual-coupling system whereby generation of ADP by GCK was coupled to oxidation of NADH via PK and LDH (Figure S2A) [37]. The final reaction contained 4 nM GCK, glucose in five-fold excess of the calculated glucose S0.5 (37.5 mM), and ATP concentrations ranging from 0 to 2 mM. The reaction was initiated by addition of ATP and read immediately, then every 10 seconds for 5 minutes. Each ATP concentration was tested in quadruplicate. The initial slopes (v0) for each concentration were determined by linear regression (GraphPad Prism, GraphPad Software, San Diego, CA, USA), and then v0 was plotted against ATP concentration (Figure S2B).
(A) Reaction scheme of PK/LDH dual-coupled assay. The reaction included 4 nM GCK. (B) Reaction progress over the first 60 seconds was monitored by the loss of NADH fluorescence at 450 nm using a ViewLux Microplate Imager and results analyzed by linear regression. Resultant slopes from regression were plotted and the curve fit using nonlinear regression accounting for substrate inhibition in GraphPad Prism to give a best-fit Km value.

[3] = target: T1, recombinant human GST-GCK; test: GCK glucose S0.5 and Hill coefficient by luminescent ADP-Glo assay; assay type: biochemical; conditions: 4 nM GCK, 4 mM ATP, 45 minutes
Procedure: The glucose S0.5 and Hill coefficient for GCK were calculated using a luminescent assay measuring the production of ADP by GCK (ADP-Glo™ Kinase Assay, Promega Corporation, Madison, WI, USA; see below). Luminescence was measured at 18 glucose concentrations from 0.1 to 100 mM (two separate experiments; each n = 8 for each concentration).
The assay included 4 nM GCK and 4 mM ATP and was terminated after 45 minutes. Each data point is mean ± SEM (n = 8). Curves were fit using nonlinear regression with the allosteric sigmoidal option in GraphPad Prism to determine the S0.5 and Hill coefficient.

[4] = test system: cryopreserved human hepatocytes; test: GCK translocation in cryopreserved human hepatocytes (GKRP-positive cells); assay type: cell-based
Procedure: Plateable cryopreserved human hepatocytes (female, lot number TRZ; male, lot number FOS) were plated at 50,000 cells/well in Biocoat black/clear collagen-coated 96-well plates in InVitroGRO™ CP medium supplemented with Torpedo™ Antibiotic Mix. After hepatocyte attachment, media was changed to InVitroGRO™ HI medium with Torpedo™ Antibiotic Mix.
Hepatocytes were fixed in 4% PFA for 15 minutes. PFA was then removed and cells were washed twice in Dulbecco’s phosphate-buffered saline (DPBS) containing 0.2% Triton-X and then permeabilized for 10 minutes with DPBS/0.2% Triton-X. Cells were then treated for 30 minutes with Odyssey protein blocking buffer (Li-cor Biosciences, Lincoln, NE, USA) before addition of a mouse monoclonal IgG2a GKRP antibody [GCKR (A-8); Santa Cruz Biotechnology, Inc., Santa Cruz, CA, USA]. The antibody (200 µg/ml) was diluted (1∶50) in protein blocking buffer and incubated with cells for 120 minutes. Cells were then washed (4×5 minutes) in PBS/0.1% Tween-20 before addition of protein blocking buffer containing Alexa Fluor® 647 Goat Anti-Mouse IgG (H+L) (Invitrogen; 1∶500 dilution) and rabbit polyclonal GCK antibody [1∶30 dilution; GCK (H-88) 200 µg/ml; Santa Cruz Biotechnology]. After 60 minutes, cells were washed with PBS/0.1% Tween-20 (4×5 minutes). Following a 60-minute incubation with blocking buffer and goat anti-rabbit IgG-HRP (1∶500 dilution; sc-2004; Santa Cruz Biotechnology), cells were washed with PBS/0.1% Tween-20 (4×5 minutes). Fluorescent detection of the HRP-conjugated secondary antibody was enabled using a 10-minute incubation with fluorescein-conjugated tyramide from the Tyramide Signal Amplification kit (PerkinElmer). The tyramide solution was prepared in DMSO (Sigma-Aldrich) according to the manufacturer’s instructions. Cells were then washed (3×5 minutes) with PBS/0.1% Tween-20 before a final five-minute wash with PBS/0.1% Tween-20 containing 0.02 mg/ml Hoechst 33342 Trihydrochloride Trihydrate (Hoechst; Invitrogen) for visualization of nuclei. After Hoechst staining, all cells were then stored in 100 µl DPBS at 4°C. […]

[5] = target: T2, GCK-GKRP interaction (recombinant human GST-GCK and FLAG-GKRP) (Homo sapiens, UniProt P35557+Q14397); test: HTRF assay of the GCK-GKRP protein-protein interaction; assay type: binding; conditions: 5 nM GCK, 5 nM GKRP, 2 µM S6P, mean ± SD; read-out: IC50 (inhibition of GCK-GKRP interaction, HTRF signal)
T2 construct: made in house
T2 sequence (P35557 1-465): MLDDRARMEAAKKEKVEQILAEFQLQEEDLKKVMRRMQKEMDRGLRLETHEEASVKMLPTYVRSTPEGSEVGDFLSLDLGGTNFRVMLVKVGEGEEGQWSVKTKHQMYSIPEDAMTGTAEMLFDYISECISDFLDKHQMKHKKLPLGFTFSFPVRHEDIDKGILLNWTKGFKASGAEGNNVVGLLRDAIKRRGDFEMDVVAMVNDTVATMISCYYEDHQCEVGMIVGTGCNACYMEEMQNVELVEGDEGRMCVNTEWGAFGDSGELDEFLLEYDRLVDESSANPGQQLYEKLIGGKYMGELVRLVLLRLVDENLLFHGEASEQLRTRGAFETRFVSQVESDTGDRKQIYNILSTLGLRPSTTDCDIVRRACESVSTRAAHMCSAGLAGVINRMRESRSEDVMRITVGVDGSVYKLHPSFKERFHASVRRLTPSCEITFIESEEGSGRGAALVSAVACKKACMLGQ
T2 sequence (Q14397 1-625): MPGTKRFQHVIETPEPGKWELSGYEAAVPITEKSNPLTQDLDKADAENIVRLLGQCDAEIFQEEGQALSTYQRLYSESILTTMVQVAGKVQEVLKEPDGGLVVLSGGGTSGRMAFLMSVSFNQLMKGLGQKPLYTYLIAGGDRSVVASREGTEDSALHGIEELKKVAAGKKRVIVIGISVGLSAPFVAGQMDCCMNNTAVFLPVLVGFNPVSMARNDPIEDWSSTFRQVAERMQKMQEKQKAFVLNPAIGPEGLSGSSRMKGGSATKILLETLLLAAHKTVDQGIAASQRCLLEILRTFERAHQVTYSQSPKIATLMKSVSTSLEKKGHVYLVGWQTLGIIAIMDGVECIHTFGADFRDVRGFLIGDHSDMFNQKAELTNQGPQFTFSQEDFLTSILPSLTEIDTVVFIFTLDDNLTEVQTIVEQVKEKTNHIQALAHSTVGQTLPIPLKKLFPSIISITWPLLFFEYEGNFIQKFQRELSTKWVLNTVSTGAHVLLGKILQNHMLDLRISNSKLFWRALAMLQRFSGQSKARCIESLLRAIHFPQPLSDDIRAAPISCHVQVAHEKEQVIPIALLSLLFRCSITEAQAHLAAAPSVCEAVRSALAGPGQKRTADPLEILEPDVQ
Procedure: Homogeneous time-resolved fluorescence (HTRF) technology (Cisbio Bioassays, Bedford, MA, USA) was utilized for antibody-based FRET measurement of the GCK-GKRP protein-protein interaction. Recombinant human GST-GCK and FLAG-GKRP were mixed in an HTRF assay buffer containing 2 mM MgCl2, 25 mM KCl, 25 mM HEPES, 1 mM DTT, 0.1% Tween-20, and 0.025% BSA (all buffer components Sigma-Aldrich). The pH was adjusted to 7.1 by drop-wise addition of 10 N NaOH. […] For assays in 1536-well plate format, the two reaction mixes were dispensed using an Aurora Discovery BioRAPTR Flying Reagent Dispenser (BioRAPTR; Beckman Coulter, Inc., Brea, CA, USA) (3 µl/well for protein-containing buffer; 1 µl/well for detection antibodies) into white 1536-well solid-bottom medium binding plates (Greiner Bio-One, Monroe, NC, USA). […] For the LOPAC^1280 library screen, column 1 was all components with DMSO (maximum signal) and column 3 was no GKRP with DMSO (minimum signal). These two control columns were used for data normalization. The final HTS protocol is in Table S1, and the data have been deposited in PubChem (AID 743207).
S6P, F1P, and glucose were dissolved in water; GKAs were dissolved in DMSO.
The assay was validated using a range (0–150 nM) of GCK and GKRP concentrations at manufacturer-recommended detection antibody concentrations ( Figure 2A ). Fluorescence was measured immediately upon mixing, and every 30 minutes thereafter for a total of 240 minutes. The plate was covered and incubated at room temperature throughout the course of the experiment.
The assay was miniaturized to 1536-well plate format and, concurrently, specificity of detection was validated by using known modulators of the GCK-GKRP interaction.
The EC80 value represents a compromise between the desire for large enough signal enhancement and the need to maintain a binding level that is not too saturated so that it can be outcompeted by compounds of interest. Additionally, this approach enables detection of specific competitors of S6P, which would likely be acting on GKRP as desired, and not on GCK. […] Both glucose and GKAs interfere with the binding of GKRP to GCK and decrease GKRP inhibition, [44], [45], while F1P binds to GKRP and is competitive with respect to S6P [46].

[6] = test system: cryopreserved pooled male Sprague-Dawley rat hepatocytes; test: GCK translocation in cryopreserved rat hepatocytes (high-content imaging); assay type: cell-based; conditions: 2 hours
Procedure: Plateable cryopreserved pooled male Sprague-Dawley rat hepatocytes (lot number NPD) were thawed and plated (40,000 cells/well) in Biocoat black/clear collagen-coated 96-well plates (BD Biosciences, San Jose, CA, USA) in InVitroGRO™ CP Rat medium supplemented with Torpedo™ Antibiotic Mix (BioreclamationIVT). After hepatocyte attachment, media was changed to InVitroGRO™ HI Rat medium with Torpedo™ Antibiotic Mix.
Hepatocytes were fixed in 4% PFA for 15 minutes. PFA was then removed and cells were washed twice in Dulbecco’s phosphate-buffered saline (DPBS) containing 0.2% Triton-X and then permeabilized for 10 minutes with DPBS/0.2% Triton-X. Cells were then treated for 30 minutes with Odyssey protein blocking buffer (Li-cor Biosciences, Lincoln, NE, USA) before addition of a mouse monoclonal IgG2a GKRP antibody [GCKR (A-8); Santa Cruz Biotechnology, Inc., Santa Cruz, CA, USA]. The antibody (200 µg/ml) was diluted (1∶50) in protein blocking buffer and incubated with cells for 120 minutes. Cells were then washed (4×5 minutes) in PBS/0.1% Tween-20 before addition of protein blocking buffer containing Alexa Fluor® 647 Goat Anti-Mouse IgG (H+L) (Invitrogen; 1∶500 dilution) and rabbit polyclonal GCK antibody [1∶30 dilution; GCK (H-88) 200 µg/ml; Santa Cruz Biotechnology]. After 60 minutes, cells were washed with PBS/0.1% Tween-20 (4×5 minutes). […]

[7] = target: T3, Recombinant glutathione-S-transferase (GST)-tagged human glucokinase (human, UniProt P35557 1-465); test: AlphaScreen or HTRF; 384-well plate; GST-GCK and FLAG-GKRP each titrated 0-150 nM in solution; anti-GST K (donor) and anti-FLAG XL 665 (acceptor) antibodies; 2 mM MgCl2, 25 mM KCl, 25 mM HEPES, 1 mM DTT, 0.1% Tween-20, 0.025% BSA, pH 7.1; room temperature, read at t = 60 minutes; signal ratio 665 nm/615 nm; conditions: both partners purified
T3 construct: glucokinase (GCK), human; also called GCK; GST-GCK; source: prepared as described previously [24], [35]
T3 sequence (looked up): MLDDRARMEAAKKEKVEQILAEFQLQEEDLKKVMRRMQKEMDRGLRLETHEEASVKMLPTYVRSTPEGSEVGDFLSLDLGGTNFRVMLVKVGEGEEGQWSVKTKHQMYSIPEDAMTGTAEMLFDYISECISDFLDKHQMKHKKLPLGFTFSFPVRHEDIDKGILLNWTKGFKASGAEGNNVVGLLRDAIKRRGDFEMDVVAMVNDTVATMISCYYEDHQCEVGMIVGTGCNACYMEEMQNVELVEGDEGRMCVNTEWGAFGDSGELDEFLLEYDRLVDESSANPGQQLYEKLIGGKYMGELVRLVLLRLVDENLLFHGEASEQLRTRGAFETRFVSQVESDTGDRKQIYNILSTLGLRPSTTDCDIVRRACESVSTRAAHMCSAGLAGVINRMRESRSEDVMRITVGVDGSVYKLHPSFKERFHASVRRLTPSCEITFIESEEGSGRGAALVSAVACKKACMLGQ

[8] = target: T3, Recombinant glutathione-S-transferase …; test: AlphaScreen or HTRF; 1536-well plate, 4 µl final volume; 5 nM GST-GCK and 5 nM FLAG-GKRP in solution, without S6P or with S6P (2 µM for the inhibitor tests); anti-GST K and anti-FLAG XL 665 antibodies; HTRF assay buffer pH 7.1; room temperature, 60 minutes; signal ratio 665 nm/615 nm; conditions: both partners purified

Molecule: Nc1ncnc2c1ncn2[C@@H]1O[C@H](COP(=O)(O)OP(=O)(O)OP(=O)(O)O)[C@@H](O)[C@H]1O [ATP]
Km ([1]; recombinant GST-GCK, read-out: ATP Km, previously described): 400 µM | Km [2]: 400 ± 110 µM

Molecule: OC[C@@H](O)[C@@H](O)[C@H](O)[C@@H](O)CO [sorbitol]
GCK translocation response ([4]; lot FOS): no translocation was observed | GCK translocation response ([4]; lot TRZ, 2.5 mM glucose): approximately four-fold

More lines, main results first:

Hill coefficient ([3]; mean ± SD): 1.53±0.1 | glucose S0.5 ([3]; mean ± SD across two experiments): 7.5 ± 0.8 mM | IC50 [5]: 16 ± 1.4 mM
Molecule: OC[C@H]1OC(O)[C@H](O)[C@@H](O)[C@@H]1O (some centres unmarked) [glucose]
Hill coefficient, previously reported [1]: 1.6–1.7 | glucose S0.5, previously reported [1]: 7.5 to 10 mM | increase in number of translocation-positive cells ([4]; 25 mM glucose compared to 2.5 mM glucose, both lots (TRZ, FOS)): approximately 10% | cells with translocated GCK ([6]; 2.5 mM glucose): 25% | cells with translocated GCK ([6]; 16.7 mM glucose): 84%

HTRF signal ratio (665 nm/615 nm) at 5.56 nM of both proteins [7]: 1.77 | HTRF signal ratio (665 nm/615 nm) at 5 nM of both proteins, no S6P [8]: 1.87
B1: Recombinant FLAG-tagged human glucokinase regulatory protein (natural protein, UniProt Q14397 1-625, looked up)
chain: MPGTKRFQHVIETPEPGKWELSGYEAAVPITEKSNPLTQDLDKADAENIVRLLGQCDAEIFQEEGQALSTYQRLYSESILTTMVQVAGKVQEVLKEPDGGLVVLSGGGTSGRMAFLMSVSFNQLMKGLGQKPLYTYLIAGGDRSVVASREGTEDSALHGIEELKKVAAGKKRVIVIGISVGLSAPFVAGQMDCCMNNTAVFLPVLVGFNPVSMARNDPIEDWSSTFRQVAERMQKMQEKQKAFVLNPAIGPEGLSGSSRMKGGSATKILLETLLLAAHKTVDQGIAASQRCLLEILRTFERAHQVTYSQSPKIATLMKSVSTSLEKKGHVYLVGWQTLGIIAIMDGVECIHTFGADFRDVRGFLIGDHSDMFNQKAELTNQGPQFTFSQEDFLTSILPSLTEIDTVVFIFTLDDNLTEVQTIVEQVKEKTNHIQALAHSTVGQTLPIPLKKLFPSIISITWPLLFFEYEGNFIQKFQRELSTKWVLNTVSTGAHVLLGKILQNHMLDLRISNSKLFWRALAMLQRFSGQSKARCIESLLRAIHFPQPLSDDIRAAPISCHVQVAHEKEQVIPIALLSLLFRCSITEAQAHLAAAPSVCEAVRSALAGPGQKRTADPLEILEPDVQ
notes: glucokinase regulatory protein (GKRP), encoded by GCKR, human; also called GKRP; FLAG-GKRP; source: prepared as described previously [24], [35]

Source: publication PMC3929664, “A Panel of Diverse Assays to Interrogate the Interaction between Glucokinase and Glucokinase Regulatory Protein, Two Vital Proteins in Human Disease” (PLoS ONE, 2014)
